“Also recorded” adds a separate entry of the source.

In assay [1] the test system is human CD4^+ T cells. Nature of the assay: proliferation of T cells in response to TCR stimulation in vitro. The assay is classed as cell-based. The following applies: listed as KD025.
The test system of assay [2] is STAT3. As to the kind of experiment: STAT3 phosphorylation in T cells. The format is cell-based, human.
Assay [3] has as its system CD4^+ T cells from RA patients. Nature of the assay: cytokine secretion ex vivo by CD3/CD28 stimulated CD4+ T cells from RA patients. The format is cell-based, human. To be noted: listed as KD025.
Assay [4] relates to TGF-β-induced STAT3, MLC and SMAD2/3 phosphorylation. As to the kind of experiment: TGF-β-induced phosphorylation of STAT3, MLC and SMAD2/3 in Tregs. The format is cell-based.
In assay [5] the test system is PBMCs. As to the kind of experiment: ex vivo anti-CD3/CD28 stimulated cytokine production in PBMCs isolated from treated patients. Also on record: species or system human. The following applies: 120 mg/day, days 1 and 8-14.

As for `CC(C)NC(=O)COc1cccc(-c2nc(Nc3ccc4[nH]ncc4c3)c3ccccc3n2)c1` [SLx-2119], in assay [1], the “proliferation in response to TCR stimulation” value was “inhibits; also recorded: down-regulated their ability to proliferate”. Further, in assay [2] (Th17-skewing conditions 5 days, then treated 3 hours), the STAT3 phosphorylation entry is given as “STAT3 phosphorylation was reduced”. Further, in assay [2] (pre-treatment, then anti-CD3/CD28 stimulation), the “phosphorylation of STAT3” value is listed as “reduced phosphorylation of STAT3”. In addition, the “phosphorylation of STAT3, IFR4 and RORγT” value in assay [2] (separate experiment (FIG. 9C)) is recorded as “reduced phosphorylation”. In assay [2] (two different experimental designs, listed as KD025), the “phosphorylation of STAT3” value is on record as “inhibits STAT3 phosphorylation; also recorded: significantly down-regulates”. Further, in assay [3], the “secretion of IFN-γ” value was “inhibits; also recorded: significantly down-regulated”, the “secretion of IL-17” value was “inhibits; also recorded: significantly down-regulated” and the “secretion of IL-21” value is reported as “inhibits; also recorded: significantly down-regulated”. Further, in assay [4], the “TGF-β-induced STAT3 and MLC phosphorylation” value is given as “down-regulates”. In addition, in assay [5], the “induction of IL-17 secretion in PBMCs” value was “significantly inhibited in PBMCs isolated from four of five patients” and the “induction of IL-21 secretion in PBMCs” value is “significantly inhibited in PBMCs from all five patients”.

Values taken from patent US10696660B2, “Rho kinase inhibitors” (priority 2012, dated 2020).
